In US20090131431A1, “Pyrazolo[3,4-b]pyridine compounds, and their use as a PDE4 inhibitors” (priority 2005, published 2009):

Target: T1, PDE4B (human recombinant) (Homo sapiens, UniProt Q07343)
T1 construct: made in house
Assay: Inhibition of PDE4B activity: SPA and/or Fluorescence Polarisation (FP) assay
Format: biochemical
Conditions: one reading (n=1) or average of 2 or more readings, read-out: PDE4B pIC50 (±about 0.5) (converted)
Procedure: The ability of compounds to inhibit catalytic activity at PDE4B or 4D (human recombinant), PDE3 (from bovine aorta), PDE5 (human recombinant) or PDE6 (from bovine retina) can optionally be determined by Scintillation Proximity Assay (SPA) in a 96-well format.
The enzyme concentration is adjusted so that no more than 20% hydrolysis of the substrate defined below occurs in control wells without compound, during the incubation. For the PDE3, PDE4B and PDE4D assays, [5′,8-3H]Adenosine 3′,5′-cyclic phosphate (Amersham Pharmacia Biotech, code TRK.559; or Amersham Biosciences UK Ltd, Pollards Wood, Chalfont St Giles, Buckinghamshire HP8 4SP, UK) is added to give 0.05 uCi per well and about 10 nM final concentration. […] Plates containing assay mixture, suitably approx. 100 ul volume of assay mixture, are mixed on an orbital shaker for 5 minutes and incubated at ambient temperature for 1 hour. Phosphodiesterase SPA beads (Amersham Pharmacia Biotech, code RPNQ 0150) are added (about 1 mg per well) to terminate the assay. Plates are sealed and shaken and allowed to stand at ambient temperature for 35 minutes to 1 hour (suitably 35 minutes) to allow the beads to settle. […] Curves are analysed using ActivityBase and XLfit (ID Business Solutions Limited, 2 Ocean Court, Surrey Research Park, Guildford, Surrey GU2 7QB, United Kingdom). Results are expressed as pIC50 values.
The ability of compounds to inhibit catalytic activity at PDE4B (human recombinant) or PDE4D (human recombinant) can optionally be determined by IMAP Fluorescence Polarisation (FP) assay (IMAP Explorer kit, available from Molecular Devices Corporation, Sunnydale, Calif., USA; Molecular Devices code: R8062) in 384-well format.
The IMAP FP assay is able to measure PDE activity in an homogenous, non-radioactive assay format. The FP assay uses the ability of immobilised trivalent metal cations, coated onto nanoparticles (tiny beads), to bind the phosphate group of Fl-AMP that is produced on the hydrolysis of fluorescein-labelled (Fl) cyclic adenosine mono-phosphate (Fl-cAMP) to the non-cyclic Fl-AMP form. […] Binding of Fl-AMP product to the beads (coated with the immobilised trivalent cations) slows the rotation of the bound Fl-AMP and leads to an increase in the fluorescence polarisation ratio of parallel to perpendicular light. Inhibition of the PDE reduces/inhibits this signal increase.
The enzyme level is set by experimentation so that reaction is linear throughout the incubation. Fluorescein adenosine 3′,5′-cyclic phosphate (from Molecular Devices Corporation, Molecular Devices code: R7091) is added to give about 40 nM final concentration (final assay volume usually ca. 20-40 ul, suitably ca. 20 ul). Plates are mixed on an orbital shaker for 10 seconds and incubated at ambient temperature for 40 minutes. IMAP binding reagent (as described above, from Molecular Devices Corporation, Molecular Devices code: R7207) is added (60 ul of a 1 in 400 dilution in binding buffer of the kit stock solution) to terminate the assay. Plates are allowed to stand at ambient temperature for 1 hour. The Fluorescence Polarisation (FP) ratio of parallel to perpendicular light is measured using an Analyst™ plate reader (from Molecular Devices Corporation). […] Curves are analysed using ActivityBase and XLfit (ID Business Solutions Limited, 2 Ocean Court, Surrey Research Park, Guildford, Surrey GU2 7QB, United Kingdom). Results are expressed as plC50 values.

T1 sequence (Q07343 1-564 isoform Q07343-2): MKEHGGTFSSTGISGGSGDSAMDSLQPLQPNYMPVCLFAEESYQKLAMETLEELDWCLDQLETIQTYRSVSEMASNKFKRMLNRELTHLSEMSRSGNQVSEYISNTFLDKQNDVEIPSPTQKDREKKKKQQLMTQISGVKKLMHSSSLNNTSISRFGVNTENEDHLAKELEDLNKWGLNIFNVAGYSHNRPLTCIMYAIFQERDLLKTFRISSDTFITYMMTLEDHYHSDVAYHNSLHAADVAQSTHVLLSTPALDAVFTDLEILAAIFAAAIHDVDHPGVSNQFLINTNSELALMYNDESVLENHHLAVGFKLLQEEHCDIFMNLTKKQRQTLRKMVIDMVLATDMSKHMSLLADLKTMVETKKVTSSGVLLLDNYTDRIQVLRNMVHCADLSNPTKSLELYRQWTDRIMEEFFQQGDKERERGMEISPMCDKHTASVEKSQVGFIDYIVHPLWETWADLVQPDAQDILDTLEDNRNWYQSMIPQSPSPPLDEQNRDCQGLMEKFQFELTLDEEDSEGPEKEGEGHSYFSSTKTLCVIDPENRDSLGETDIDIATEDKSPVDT

Row | IC50 | SMILES
1 | 0.01 to 0.1 nM | CCc1nc2c(cnn2CC)c(NC2CCOCC2)c1CNC(=O)c1ccccc1O [Example 250, N-{[1,6-diethyl-4-(tetrahydro-2H-pyran-4-ylamino)-1H-pyrazolo[3,4-b]pyridin-5-yl]methyl}-2-hydroxybenzamide]
2 | 0.01 to 0.1 nM | CCc1nc2c(cnn2CC)c(NC2CCN(C(N)=O)CC2)c1CNC(=O)c1ccc(C2CCCC2)cc1 [Example 210, 4-{[5-({[(4-cyclopentylphenyl)carbonyl]amino}methyl)-1,6-diethyl-1H-pyrazolo[3,4-b]pyridin-4-yl]amino}-1-piperidinecarboxamide]
3 | 0.01 to 0.1 nM | CCc1nc2c(cnn2CC)c(NC2CCOCC2)c1CNC(=O)c1cc(S(=O)(=O)NC2CCC2)ccc1OC [Example 186, 5-[(cyclobutylamino)sulfonyl]-N-{[1,6-diethyl-4-(tetrahydro-2H-pyran-4-ylamino)-1H-pyrazolo[3,4-b]pyridin-5-yl]methyl}-2-(methyloxy)benzamide]
4 | 0.01 to 0.1 nM | CCn1ncc2c(NC3CCN(C(N)=O)CC3)c(CNC(=O)c3ccc(N4CCCCC4)cc3)c(C)nc21 [Example 269, 4-({1-ethyl-6-methyl-5-[({[4-(1-piperidinyl)phenyl]carbonyl}amino)methyl]-1H-pyrazolo[3,4-b]pyridin-4-yl}amino)-1-piperidinecarboxamide]
5 | 0.01 to 0.1 nM | CCc1nc2c(cnn2CC)c(NC2CCOCC2)c1CNC(=O)c1ccccc1F [Example 232, N-{[1,6-diethyl-4-(tetrahydro-2H-pyran-4-ylamino)-1H-pyrazolo[3,4-b]pyridin-5-yl]methyl}-2-fluorobenzamide]
6 | 0.01 to 0.1 nM | CCc1nc2c(cnn2CC)c(NC2CCOCC2)c1CNC(=O)c1ccc(C(=O)NC)cc1 [Example 255, N-{[1,6-diethyl-4-(tetrahydro-2H-pyran-4-ylamino)-1H-pyrazolo[3,4-b]pyridin-5-yl]methyl}-N′-methyl-1,4-benzenedicarboxamide]
7 | 0.126 to 1 nM | CCc1nc2c(cnn2CC)c(NC2CCOCC2)c1CNC(=O)N1CCCCC1 [Example 290, N-{[1,6-diethyl-4-(tetrahydro-2H-pyran-4-ylamino)-1H-pyrazolo[3,4-b]pyridin-5-yl]methyl}-1-piperidinecarboxamide]
8 | 0.01 to 0.1 nM | CCc1nc2c(cnn2CC)c(NC2CCN(C(N)=O)CC2)c1CNC(=O)c1cccc(NC(C)=O)c1 [Example 244, 4-({5-[({[3-(acetylamino)phenyl]carbonyl}amino)methyl]-1,6-diethyl-1H-pyrazolo[3,4-b]pyridin-4-yl}amino)-1-piperidinecarboxamide]
9 | 0.126 to 1 nM | CCn1ncc2c(NC3CCOCC3)c(CNC(=O)c3cnc(C)cn3)c(C)nc21 [Example 228, N-{[1-ethyl-6-methyl-4-(tetrahydro-2H-pyran-4-ylamino)-1H-pyrazolo[3,4-b]pyridin-5-yl]methyl}-5-methyl-2-pyrazinecarboxamide]
10 | 0.01 to 0.1 nM | CCn1ncc2c(NC3CCOCC3)c(CNC(=O)c3ccc(C)cc3O)c(C)nc21 [Example 281, N-{[1-ethyl-6-methyl-4-(tetrahydro-2H-pyran-4-ylamino)-1H-pyrazolo[3,4-b]pyridin-5-yl]methyl}-2-hydroxy-4-methylbenzamide]
11 | 0.01 to 0.1 nM | CCn1ncc2c(NC3CCOCC3)c(CNC(=O)c3ccccc3O)c(C)nc21 [Example 275, N-{[1-ethyl-6-methyl-4-(tetrahydro-2H-pyran-4-ylamino)-1H-pyrazolo[3,4-b]pyridin-5-yl]methyl}-2-hydroxybenzamide]
12 | 0.126 to 1 nM | CCc1nc2c(cnn2CC)c(NC2CCOCC2)c1CNC(=O)c1ccc2ccccc2c1 [Example 191, N-{[1,6-diethyl-4-(tetrahydro-2H-pyran-4-ylamino)-1H-pyrazolo[3,4-b]pyridin-5-yl]methyl}-2-naphthalenecarboxamide]
13 | 0.01 to 0.1 nM | CCc1nc2c(cnn2CC)c(NC2CCOCC2)c1CNC(=O)c1cc(C)on1 [Example 233, N-{[1,6-diethyl-4-(tetrahydro-2H-pyran-4-ylamino)-1H-pyrazolo[3,4-b]pyridin-5-yl]methyl}-5-methyl-3-isoxazolecarboxamide]
14 | 0.01 to 0.1 nM | CCc1nc2c(cnn2CC)c(NC2CCN(C(N)=O)CC2)c1CNC(=O)c1ccc(N2CCCCC2)cc1 [Example 204, 4-({1,6-diethyl-5-[({[4-(1-piperidinyl)phenyl]carbonyl}amino)methyl]-1H-pyrazolo[3,4-b]pyridin-4-yl}amino)-1-piperidinecarboxamide]
15 | 0.126 to 1 nM | CCn1ncc2c(NC3CCOCC3)c(CNC(=O)c3cc(C)on3)c(C)nc21 [Example 225, N-{[1-ethyl-6-methyl-4-(tetrahydro-2H-pyran-4-ylamino)-1H-pyrazolo[3,4-b]pyridin-5-yl]methyl}-5-methyl-3-isoxazolecarboxamide]
16 | 0.126 to 1 nM | CCc1nc2c(cnn2CC)c(NC2CCOCC2)c1CNC(=O)c1ccnn1C [Example 158, N-{[1,6-diethyl-4-(tetrahydro-2H-pyran-4-ylamino)-1H-pyrazolo[3,4-b]pyridin-5-yl]methyl}-1-methyl-1H-pyrazole-5-carboxamide]
17 | 0.126 to 1 nM | CCc1nc2c(cnn2CC)c(NC2CCOCC2)c1CNC(=O)NCCc1ccccc1 [Example 202, N-{[1,6-diethyl-4-(tetrahydro-2H-pyran-4-ylamino)-1H-pyrazolo[3,4-b]pyridin-5-yl]methyl}-N′-(2-phenylethyl)urea]
18 | 0.01 to 0.1 nM | CCc1nc2c(cnn2CC)c(NC2CCOCC2)c1CNC(=O)c1cc(S(=O)(=O)NCC2CC2)ccc1OC [Example 183, 5-{[(cyclopropylmethyl)amino]sulfonyl}-N-{[1,6-diethyl-4-(tetrahydro-2H-pyran-4-ylamino)-1H-pyrazolo[3,4-b]pyridin-5-yl]methyl}-2-(methyloxy)benzamide]
19 | 0.126 to 1 nM | CCn1ncc2c(NC3CCOCC3)c(CNC(=O)c3cccnc3)c(C)nc21 [Example 125, N-{[1-ethyl-6-methyl-4-(tetrahydro-2H-pyran-4-ylamino)-1H-pyrazolo[3,4-b]pyridin-5-yl]methyl}-3-pyridinecarboxamide]
20 | 0.126 to 1 nM | CCn1ncc2c(NC3CCOCC3)c(CNC(=O)c3ccn(C)n3)c(C)nc21 [Example 229, N-{[1-ethyl-6-methyl-4-(tetrahydro-2H-pyran-4-ylamino)-1H-pyrazolo[3,4-b]pyridin-5-yl]methyl}-1-methyl-1H-pyrazole-3-carboxamide]
21 | 0.126 to 1 nM | CCc1nc2c(cnn2CC)c(NC2CCOCC2)c1CNC(=O)NCc1ccccc1 [Example 200]
22 | 0.01 to 0.1 nM | CCc1nc2c(cnn2CC)c(NC2CCOCC2)c1CNC(=O)c1cc(C(=O)N(C)c2ccccc2)ccc1OC [Example 182, N˜3˜-{[1,6-diethyl-4-(tetrahydro-2H-pyran-4-ylamino)-1H-pyrazolo[3,4-b]pyridin-5-yl]methyl}-N˜1˜-methyl-4-(methyloxy)-N-˜1˜-phenyl-1,3-benzenedicarboxamide]
23 | 0.01 to 0.1 nM | CCc1nc2c(cnn2CC)c(NC2CCN(C(N)=O)CC2)c1CNC(=O)c1ccco1 [Example 240, 4-[(1,6-diethyl-5-{[(2-furanylcarbonyl)amino]methyl}-1H-pyrazolo[3,4-b]pyridin-4-yl)amino]-1-piperidinecarboxamide]
24 | 0.126 to 1 nM | CCn1ncc2c(NC3CCOCC3)c(CN3Cc4occc4C3=O)c(C)nc21 [Example 301, 5-{[1-ethyl-6-methyl-4-(tetrahydro-2H-pyran-4-ylamino)-1H-pyrazolo[3,4-b]pyridin-5-yl]methyl}-5,6-dihydro-4H-furo[2,3-c]pyrrol-4-one]
25 | 0.126 to 1 nM | CCc1nc2c(cnn2CC)c(NC2CCOCC2)c1CNC(=O)c1cccc2ccccc12 [Example 192, N-{[1,6-diethyl-4-(tetrahydro-2H-pyran-4-ylamino)-1H-pyrazolo[3,4-b]pyridin-5-yl]methyl}-1-naphthalenecarboxamide]
26 | 0.126 to 1 nM | CCn1ncc2c(NC3CCOCC3)c(CNC(=O)c3ccco3)c(C)nc21 [Example 218, N-{[1-ethyl-6-methyl-4-(tetrahydro-2H-pyran-4-ylamino)-1H-pyrazolo[3,4-b]pyridin-5-yl]methyl}-2-furancarboxamide]
